Literature values as cited in patent US20080311054A1, “Compositions and Methods to Counteract Oral Malodour” (GIVAUDAN SA, priority 2005, published 2008).

Test system: microorganisms such as yeasts
Conditions: WO 99/51093

Structure (SMILES): CCCCCCCCO [octanol]
- effect (killing microorganisms such as yeasts): no effect
